Activity calls are given as the source filed them. No cut-off for these calls is given here.
Legend:
Tumor necrosis factor [1] = target: T1, Tumor necrosis factor (Homo sapiens, UniProt P01375); assay: Inhibition of human TNFalpha induced NFkappaB activation in HEK293T cells after 6 hrs by dual-glo luciferase assay; assay type: cell-based; conditions: for inhibition: HEK-293T
Tumor necrosis factor [2] = target: T1, Tumor necrosis factor; assay: Inhibition of human TNFalpha expressed in Escherichia coli assessed as increase in TNFalpha monomer level after 15 mins by SDS-PAGE analysis
Tumor necrosis factor [3] = target: T1, Tumor necrosis factor; assay: Inhibition of human TNFalpha expressed in Escherichia coli assessed as decrease in TNF-alpha trimer level after 15 mins by SDS-PAGE analysis
Tumor necrosis factor [4] = target: T1, Tumor necrosis factor; assay: Inhibition of human TNFalpha expressed in Escherichia coli assessed as trimer to dimer transition at 5 uM measured after 12 hrs by mass spectrometry
Tumor necrosis factor [5] = target: T1, Tumor necrosis factor; assay: Inhibition of human TNFalpha expressed in Escherichia coli assessed as increase in TNF-alpha dimer level after 15 mins by SDS-PAGE analysis
Tumor necrosis factor [6] = target: T1, Tumor necrosis factor; assay: Binding affinity to human TNFalpha expressed in Escherichia coli by surface plasmon resonance method
[7] = Cytotoxicity against HEK293T cells at >300 uM after 24 hrs by CCK8 assay; assay type: cell-based; conditions: human, hek-293t
[8] = Cytotoxicity against HEK293T cells assessed as cell death at 30 uM after 24 hrs by CCK8 assay; assay type: cell-based; conditions: human, hek-293t

T1 sequence (P01375 whole entry): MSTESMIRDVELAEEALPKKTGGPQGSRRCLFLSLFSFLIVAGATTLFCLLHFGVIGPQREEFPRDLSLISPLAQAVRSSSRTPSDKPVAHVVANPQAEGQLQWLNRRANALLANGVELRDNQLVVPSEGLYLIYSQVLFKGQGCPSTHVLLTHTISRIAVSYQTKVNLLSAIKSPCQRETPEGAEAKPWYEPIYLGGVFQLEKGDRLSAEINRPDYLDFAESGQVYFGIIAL

Compound	inhibition (Tumor necrosis factor [1])	inhibition (Tumor necrosis factor [2])	inhibition (Tumor necrosis factor [3])	inhibition (Tumor necrosis factor [4])	inhibition (Tumor necrosis factor [5])	IC50 (Tumor necrosis factor [1]) [nM]	Kd (Tumor necrosis factor [6]) [nM]	Activity [7]	mortality [8] [%]
CC[C@@H](C)[C@@H](NC(=O)[C@@H](CCC(N)=O)NC(=O)[C@@H](CCC(N)=O)NC(=O)[C@@H](Cc1ccccc1)NC(=O)[C@@H](CCC(=O)O)NC(=O)[C@@H](CCC(N)=O)NC(=O)[C@H](NC(=O)[C@@H](CCC(=O)O)NC(=O)[C@@H](CCC(N)=O)NC(=O)[C@H](Cc1c[nH]c2ccccc12)NC(=O)[C@H](CC(N)=O)NC(=O)[C@H](CCCNC(=N)N)NC(=O)[C@H](CCCCN)NC(=O)[C@H](CC(C)C)NC(=O)[C@H](CCC(=O)O)NC(=O)[C@H](CC(=O)O)NC(=O)[C@H](CCC(=O)O)NC(=O)[C@H](C)NC(=O)[C@H](N)CC(=O)O)[C@@H](C)CC)C(=O)N[C@H](CC(C)C)C(=O)N[C@H](CCC(N)=O)C(=O)N[C@H](CCSC)C(=O)N[C@H](Cc1ccccc1)C(=O)N[C@H](Cc1ccccc1)C(=O)N[C@H](CCC(=O)O)C(=O)N[C@H](Cc1c[nH]c2ccccc12)C(=O)N[C@@H](Cc1c[nH]c2ccccc12)C(=O)N[C@@H](CCC(N)=O)C(=O)N[C@H](CCCCN)C(=O)N[C@@H](CC(=O)O)C(=O)O	Dose-dependent effect	Active	Active	Active	Active				
H-DAEDELKRNWQAIQEFQQILQMFFEWWQKD-OH	inactive								
H-QEKWFAEQYARMVLEWIEKELKESL-OH	Dose-dependent effect	Active	Active	Active	Active	20700	500	Non-toxic	
H-RQQEELYKKWLQEFWKWFQIALQLD-OH	Dose-dependent effect	Active	Active	Active	Active	32600	500	Non-toxic	
H-SEQELKQIFQQVFQWWQLWEQFEKQ-OH		Active	Active	Active	Active				
CC[C@H](C)[C@H](NC(=O)[C@H](CCC(N)=O)NC(=O)[C@H](CCC(N)=O)NC(=O)[C@H](Cc1ccccc1)NC(=O)[C@H](CCC(=O)O)NC(=O)[C@H](CCC(N)=O)NC(=O)[C@@H](NC(=O)[C@H](CCC(=O)O)NC(=O)[C@H](CCC(N)=O)NC(=O)[C@H](Cc1c[nH]c2ccccc12)NC(=O)[C@H](CC(N)=O)NC(=O)[C@H](CCCNC(=N)N)NC(=O)[C@H](CCCCN)NC(=O)[C@H](CC(C)C)NC(=O)[C@H](CCC(=O)O)NC(=O)[C@H](CC(=O)O)NC(=O)[C@H](CCC(=O)O)NC(=O)[C@H](C)NC(=O)[C@@H](N)CC(=O)O)[C@@H](C)CC)C(=O)N[C@@H](CC(C)C)C(=O)N[C@@H](CCC(N)=O)C(=O)N[C@@H](CCSC)C(=O)N[C@@H](Cc1ccccc1)C(=O)N[C@@H](Cc1ccccc1)C(=O)N[C@@H](CCC(=O)O)C(=O)N[C@@H](Cc1c[nH]c2ccccc12)C(=O)N[C@@H](Cc1c[nH]c2ccccc12)C(=O)N[C@@H](CCC(N)=O)C(=O)N[C@@H](CCCCN)C(=O)N[C@@H](CC(=O)O)C(=O)O						11900	390	Non-toxic	
CC[C@@H](C)[C@H](NC(=O)[C@H](CCC(=O)O)NC(=O)[C@H](CCC(N)=O)NC(=O)[C@@H](Cc1c[nH]c2ccccc12)NC(=O)[C@@H](CC(N)=O)NC(=O)[C@@H](CCCNC(=N)N)NC(=O)[C@@H](CCCCN)NC(=O)[C@@H](CC(C)C)NC(=O)[C@@H](CCC(=O)O)NC(=O)[C@@H](CC(=O)O)NC(=O)[C@@H](CCC(=O)O)NC(=O)[C@@H](C)NC(=O)[C@@H](N)CC(=O)O)C(=O)N[C@@H](CCC(N)=O)C(=O)N[C@@H](CCC(=O)O)C(=O)N[C@@H](C)C(=O)N[C@@H](CCC(N)=O)C(=O)N[C@@H](CCC(N)=O)C(=O)N[C@H](C(=O)N[C@@H](CC(C)C)C(=O)N[C@@H](CCC(N)=O)C(=O)N[C@@H](CCSC)C(=O)N[C@@H](Cc1ccccc1)C(=O)N[C@@H](Cc1ccccc1)C(=O)N[C@@H](CCC(=O)O)C(=O)N[C@@H](Cc1c[nH]c2ccccc12)C(=O)N[C@H](Cc1c[nH]c2ccccc12)C(=O)N[C@H](CCC(N)=O)C(=O)N[C@@H](CCCCN)C(=O)N[C@H](CC(=O)O)C(=O)O)[C@@H](C)CC	inactive								
CC[C@@H](C)[C@H](NC(=O)[C@H](CCC(N)=O)NC(=O)[C@H](CCC(N)=O)NC(=O)[C@H](Cc1ccccc1)NC(=O)[C@H](CCC(=O)O)NC(=O)[C@H](CCC(N)=O)NC(=O)[C@@H](NC(=O)[C@H](CCC(=O)O)NC(=O)[C@H](CCC(N)=O)NC(=O)[C@@H](Cc1c[nH]c2ccccc12)NC(=O)[C@H](CC(N)=O)NC(=O)[C@H](CCCNC(=N)N)NC(=O)[C@H](CCCCN)NC(=O)[C@H](CC(C)C)NC(=O)[C@H](CCC(=O)O)NC(=O)[C@H](CC(=O)O)NC(=O)[C@H](CCC(=O)O)NC(=O)[C@H](C)NC(=O)[C@H](N)CC(=O)O)[C@@H](C)CC)C(=O)N[C@@H](C)C(=O)N[C@@H](CCC(N)=O)C(=O)N[C@@H](CCSC)C(=O)N[C@@H](Cc1ccccc1)C(=O)N[C@@H](Cc1ccccc1)C(=O)N[C@@H](CCC(=O)O)C(=O)N[C@@H](Cc1c[nH]c2ccccc12)C(=O)N[C@@H](Cc1c[nH]c2ccccc12)C(=O)N[C@@H](CCC(N)=O)C(=O)N[C@H](CCCCN)C(=O)N[C@@H](CC(=O)O)C(=O)O	inactive								
H-LREQRLKEHLQEIQIFEQWLQIFQEQFQKF-OH	inactive						500	Non-toxic	
Cc1cc2occ(CN(C)CCN(C)Cc3cn(-c4cccc(C(F)(F)F)c4)c4ccccc34)c(=O)c2cc1C									50

From ChEMBL document CHEMBL3804771, “De novo design of helical peptides to inhibit tumor necrosis factor- by disrupting its trimer formation” (Medchemcomm, 2016)
